Measurements from ChEMBL document CHEMBL2040548, “Anti-influenza virus activities of 4-substituted 2,4-dioxobutanoic acid inhibitors” (Antimicrob Agents Chemother, 1996).

How the values were obtained:
[1] = target: Polymerase acidic protein (Influenza A virus (strain A/Hong Kong/1/1968 H3N2)) (UniProt Q91MA9); test: Upper respiratory tract challenge; type: functional, organism-based; settings: Mus musculus
[2] = target: Polymerase acidic protein (Influenza A virus (A/Puerto Rico/8/1934(H1N1)), UniProt P03433); test: Inhibition of cap 1 ALMV primed Influenza transcriptase

Row | Compound | Log10 reduction [1] | IC50 [2]
1 | CC(=O)N[C@@H]1[C@@H](NC(=N)N)C=C(C(=O)O)O[C@@]1(C)[C@H](O)[C@H](O)CO | 4.3 | 
2 | O=C(O)/C(O)=C/C(=O)C1(Cc2ccc(Cl)cc2)CCN(Cc2ccc(Cl)cc2)CC1 |  | 540 nM
